Earlier results as cited in patent US20250186473A1, “Compositions and Methods for Treating Kidney Disease” (Neukidney Incorporated, priority 2023, published 2025).

Tested on: CKD in rat models
Details: oral supplementation, BUN, serum creatinine, fibrosis

NC(=O)c1cccnc1 [Nicotinamide]
effect on progression of CKD: attenuated progression of CKD
